The nature of the assay: Binding affinity for rat imidazoline receptor I-1 from crude P2 membranes.

The results in this text go back to BindingDB's records for doi:10.1016/j.bmcl.2003.09.092 (Virginia Commonwealth University, 2003).

The structures appear in SMILES notation.

What is called Ki is a dissociation constant, usually derived from enzyme kinetics or from competition with a known ligand. Lower therefore signals higher affinity. `C(=C\c1ccccc1)/C1=NCCN1` [2-((E)-Styryl)-4,5-dihydro-1H-imidazole] yielded a Ki of 10 nM.
